Experimental data from patent publication US20240352055A1, “PROCESS FOR THE MANUFACTURE OF (2S,3S,4S,5R,6S)-3,4,5-TRIHYDROXY-6-(((4AR,10AR)-7-HYDROXY-1-PROPYL-1,2,3,4,4A,5,10,10A-OCTAHYDROBENZO[G]QUINOLIN-6-YL)OXY)TETRAHYDRO-2H-PYRAN-2-CARBOXYLIC ACID” (H. LUNDBECK A/S, priority 2019, published 2024).
Where two headings read alike, the source gives them in different places.

Assays:
[1] = target: human 5-HT2B receptor (Homo sapiens (Human), UniProt P41595); assay: 5-HT2B agonist activity assay (IP1 production, HTRF); format: cell-based; conditions: for 5-HT2B agonist effect at single concentration: percent of control response to 1 μM 5-HT; for EC50: CHO cells expressing human 5-HT2B, IP1 production
Sequence of human 5-HT2B receptor (P41595 whole entry): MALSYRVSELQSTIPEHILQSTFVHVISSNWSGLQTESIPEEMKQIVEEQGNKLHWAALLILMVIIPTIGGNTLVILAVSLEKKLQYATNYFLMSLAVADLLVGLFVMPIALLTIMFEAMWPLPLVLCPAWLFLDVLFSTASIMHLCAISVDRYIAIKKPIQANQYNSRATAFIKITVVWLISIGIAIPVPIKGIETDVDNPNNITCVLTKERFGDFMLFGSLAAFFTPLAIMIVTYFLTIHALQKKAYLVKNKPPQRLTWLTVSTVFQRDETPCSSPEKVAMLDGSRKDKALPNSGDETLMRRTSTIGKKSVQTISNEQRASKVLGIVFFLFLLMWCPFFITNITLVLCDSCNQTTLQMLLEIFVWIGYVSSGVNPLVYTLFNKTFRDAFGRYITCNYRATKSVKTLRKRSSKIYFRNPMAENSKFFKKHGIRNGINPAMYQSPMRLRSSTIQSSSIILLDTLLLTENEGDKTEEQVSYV
Procedure: Evaluation of the agonist activity of compounds (I), (Ia)(Ib), (Ic), and (Id) at the human 5-HT2B receptor was performed by Eurofins/Cerep (France) measuring the compound effects on inositol monophosphate (IP1) production using the HTRF detection method. Briefly, the human 5-HT2B receptor was expressed in transfected CHO cells. The cells were suspended in a buffer containing 10 mM Hepes/NaOH (pH 7.4), 4.2 mM KCl, 146 mM NaCl, 1 mM CaCl2, 0.5 mM MgCl2, 5.5 mM glucose and 50 mM LiCl, then distributed in microplates at a density of 4100 cells/well and incubated for 30 minutes at 37° C. in the presence of buffer (basal control), test compound or reference agonist. For stimulated control measurement, separate assay wells contained 1 μM 5-HT. Following incubation, the cells were lysed and the fluorescence acceptor (fluorophen D2-labeled IP1) and fluorescence donor (anti-IP1 antibody labeled with europium cryptate) were added. After 60 minutes at room temperature, the fluorescence transfer was measured at lambda (Ex) 337 nm and lambda(Em) 620 and 665 nm using a microplate reader (Rubystar, BMG). The IP1 concentration was determined by dividing the signal measured at 665 nm by that measured at 620 nm (ratio). The results were expressed as a percent of the control response to 1 μM 5-HT. The standard reference agonist was 5-HT, which was tested in each experiment at several concentrations to generate a concentration-response curve from which its EC50 value is calculated as described above for dopamine functional assays.

[2] = PK experiments in rats: plasma compound (I) after oral dosing of prodrugs; format: in vivo, Han Wistar rats; conditions: Wistar rats, oral dosing of the prodrug
Procedure: Plasma was placed on water-ice following collection. Final storage at approximately −70° C.
Instrumentation Used for Analysis of Compound (I) from Dosing Compound (Ia):
Mobile phase B: Acetonitrile. […] Flow rate 0.5 mL/min.
The rats had unrestricted access to the diet.
Instrumentation Used for Analysis of Compound (I) from Dosing of Compound (Ib):
Mobile phase B: Acetonitrile+0.2% formic acid. […] Flow rate 0.3 mL/min.
Dosing and blood sampling for compound (Ic): Han Wistar rats were supplied by Envigo, UK. […] The rats received a standard laboratory diet Teklad 2014C. The rats had unrestricted access to the diet. […] Rats were given 494 μg/kg (Ic).

[3] = target: human D1 receptor (Homo sapiens (Human), UniProt P21728); assay: Dopamine D1 receptor agonism, HTRF cAMP assay; format: cell-based
Sequence of human D1 receptor (P21728 whole entry): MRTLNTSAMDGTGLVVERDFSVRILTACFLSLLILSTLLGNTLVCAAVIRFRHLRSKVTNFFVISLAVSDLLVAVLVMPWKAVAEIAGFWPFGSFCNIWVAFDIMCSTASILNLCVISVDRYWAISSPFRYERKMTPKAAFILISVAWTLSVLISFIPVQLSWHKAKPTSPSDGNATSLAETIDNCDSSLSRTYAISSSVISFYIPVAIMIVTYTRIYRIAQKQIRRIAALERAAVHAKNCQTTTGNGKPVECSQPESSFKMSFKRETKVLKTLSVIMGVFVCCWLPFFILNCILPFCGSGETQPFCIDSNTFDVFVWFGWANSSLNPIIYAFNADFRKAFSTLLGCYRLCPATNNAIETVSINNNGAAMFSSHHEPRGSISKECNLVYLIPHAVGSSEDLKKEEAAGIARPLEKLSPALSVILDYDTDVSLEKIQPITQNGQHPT
Procedure: Dopamine D1 receptor agonism was measured using a HTRF cAMP from CisBio using the protocol developed by HD Biosciences (China). Briefly, the assay is a homogeneous time resolved-fluorescence resonance energy transfer (HTRF) assay that measures production of cAMP by cells in a competitive immunoassay between native cAMP produced by cells and cAMP-labeled with XL-665. A cryptate-labeled anti-cAMP antibody visualizes the tracer. The assay was performed in accordance with instructions from manufacturer.
Test compounds were added to wells of microplates (384 format). HEK-293 cells expressing the human D1 receptor were plated at 1000 cells/well and incubated 30 minutes at room temperature. cAMP-d2 tracer was added to wells and followed by addition of Anti-cAMP antibody-cryptate preparation and incubated for 1 hour at room temperature in dark. HTRF cAMP was measured by excitation of the donor with 337 nm laser (the “TRF light unit”) and subsequent (delay time 100 microseconds) measurement of cryptate and d2 emission at 615 nm and 665 nm over a time window of 200 microseconds with a 2000 microseconds time window between repeats/100 flashes). HTRF measurements were performed on an Envision microplate reader (PerkinElmer). The HTRF signal was calculated as the emission-ratio at 665 nm over 615 nm. The HTRF ratio readout for test compounds was normalized to […] and 100% stimulation using control wells with DMSO-solvent or 30 μM dopamine. Test compound potency (EC50) was estimated by nonlinear regression using the sigmoidal dose-response (variable slope) using Xlfit 4 (IDBS, Guildford, Surrey, UK, model 205).
y=(A+((B−A)/(1+((C/x)^D))))
where y is the normalized HTRF ratio measurement for a given concentration of test compound, x is the concentration of test compound, A is the estimated efficacy at infinite compound dilution, and B is the maximal efficacy. C is the EC50 value and D is the Hill slope coefficient. EC50 estimates were obtained from an independent experiment and the logarithmic average was calculated.

[4] = target: human D2 receptor (Homo sapiens (Human), UniProt P14416); assay: Dopamine D2 receptor agonism, calcium mobilization assay; format: cell-based; conditions: HEK293/G15 cells expressing human D2 receptor; calcium flux
Sequence of human D2 receptor (P14416 whole entry): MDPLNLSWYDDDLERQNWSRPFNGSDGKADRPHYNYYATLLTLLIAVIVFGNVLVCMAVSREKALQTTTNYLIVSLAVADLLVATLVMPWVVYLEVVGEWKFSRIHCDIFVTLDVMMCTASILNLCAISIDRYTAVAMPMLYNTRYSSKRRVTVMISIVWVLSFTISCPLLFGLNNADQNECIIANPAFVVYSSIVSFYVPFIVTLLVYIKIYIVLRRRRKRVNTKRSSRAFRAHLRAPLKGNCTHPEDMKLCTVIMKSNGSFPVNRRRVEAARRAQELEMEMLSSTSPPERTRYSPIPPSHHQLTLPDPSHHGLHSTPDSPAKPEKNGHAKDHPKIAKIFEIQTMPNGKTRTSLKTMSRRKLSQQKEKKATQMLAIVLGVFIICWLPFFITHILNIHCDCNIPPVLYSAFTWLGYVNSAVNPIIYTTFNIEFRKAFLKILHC
Procedure: Dopamine D2 receptor agonism was measured using a calcium mobilization assay protocol developed by HD Biosciences (China). Briefly, HEK293/G15 cells expressing human D2 receptor were plated at a density of 15000 cells/well in clear-bottomed, Matrigel-coated 384-well plates and grown for 24 hours at 37° C. in the presence of 5% CO2. The cells were incubated with calcium-sensitive fluorescent dye, Fluo8, for 60-90 minutes at 37° C. in the dark. Test compounds were prepared at 3-fold concentrated solution in 1×HBSS buffer with Ca^2. and Mg^2+. Calcium Flux signal was immediately recorded after compounds were added from compound plate to cell plate at FLIPR (Molecular Devices). The fluorescence data were normalized to yield responses for no stimulation (buffer) and full stimulation (1 μM of dopamine) of 0% and 100%. stimulation, respectively. Test compound potency (EC50) was estimated by nonlinear regression using the sigmoidal dose-response (variable slope) using Xlfit 4 (IDBS, Guildford, Surrey, UK, model 205).
where y is the normalized ratio measurement for a given concentration of test compound, x is the concentration of test compound, A is the estimated efficacy at infinite compound dilution, and B is the maximal efficacy. C is the EC50 value and D is the Hill slope coefficient. EC50 estimates were obtained from independent experiment and the logarithmic average was calculated.

[5] = Liu et al., Bioorganic Med. Chem. (2008); cited from earlier work
[6] = system: locomotor activity; assay: Rat locomotor activity (hyperactivity) assay, open field; format: in vivo, male CD rats; conditions: for Onset of increased locomotor activity post-administration / End of locomotor effect, time post administration: (Id) 10 to 300 μg/kg p.o.; for End of locomotor effect, time post administration: recording to the 415-minute time point
Procedure: In total, 206 male CD rats (Charles River, Germany) weighing 200-250 grams (165-190 grams upon arrival) were used in the study. Animals were housed at a standard temperature (22±1° C.) and in a light-controlled environment (lights on from 7 am to […]) with ad libitum access to food and water. The experiment described below was performed in accordance with the standard operating procedures of Charles River Discovery Research Services Finland Ltd. and in accordance with the national Animal Experiment Board of Finland (Eläinkoelautakunta, ELLA) authority on animal testing.
The test device is a square Plexiglass-arena (measuring 40×40×40 cm), in which the movement paths of the rats are recorded by an activity monitor (Med. Associates Inc.). Before the test period is initiated, rats are habituated to their test cage for 60 minutes. Upon completion of habituation, animals were treated with either compound or vehicle and placed back into the open field apparatus. The main test parameter measured is ambulatory distance (recorded in 5 minute segments). Overall time of measurement after receiving initial treatment was 360 minutes. Total follow up period in the study was 420 minutes, including 60 minutes of habituation.
Apomorphine and pramipexole were also concomitantly tested in this assay as comparators (i.e. known standard-of-care (SoC) in the Parkinson's Disease field), and plasma concentration was analyzed for apomorphine.

[7] = Conversion of compound (Id) to compound (I) in rat hepatocytes; format: in vitro ADME; conditions: 1 μg/mL, 37° C., up to 60 minutes
Procedure: (§1) The cell concentration at incubation was 1×10^6 viable cells/mL. The incubations were performed in glass tubes at 37° C. with a total incubation volume of 3.5 mL and with duplicate incubations for each test item. The 3.5 mL of hepatocyte suspension was equilibrated for 10 minutes in a water bath set to 37° C. where after the incubations were initiated by adding 3.5 μL of a stock solution of the test item in DMSO (Dimethyl sulfoxide) and gently inverting the tubes. The final solvent concentration in the incubations was 0.1% DMSO. Samples of 600 μL were withdrawn from the incubations at the pre-determined time points of 0.25, 5, 15, 30 and 60 minutes after ensuring homogeneity of hepatocyte suspensions. The withdrawn volume was added to 1 mL Nunc cryotubes on wet ice containing 60 μL of ice-cold ascorbic acid (100 mg/mL) and 30 μL of ice cold 100 mM saccharic acid 1.4-lactone in 0.5 M citric acid. The tubes were mixed and 35 μL of a solution of ice cold 20% formic acid was added. The tubes were mixed thoroughly and stored at −80° C. awaiting analysis.

[8] = Conversion of compound (Id) to compound (I) in human hepatocytes; format: in vitro ADME; conditions: 1 μg/mL, 37° C., up to 60 minutes
Procedure: as §1

[9] = Conversion of compound (Id) to compound (I) in fresh rat blood; format: in vitro ADME; conditions: 1 μg/mL, 37° C., up to 60 minutes
Procedure: (§2) Conversion of (Id) in human blood (average of 3 donors) and rat blood (average of […]) to (1) was shown in fresh blood at 37° C. spiked with 1 μg/mL of (Id). (1) was measured at 0, 5, 15, 30 and 60 minutes in isolated plasma. Analysis method and Instrumentation as described in Examples 9 and 10 below in the section “Instrumentation used for analysis of compound (I) from dosing of compounds (Ic) and (d).”

[10] = Conversion of compound (Id) to compound (I) in fresh human blood; format: in vitro ADME; conditions: 1 μg/mL, 37° C., up to 60 minutes
Procedure: as §2

[11] = In vivo conversion of compound (Id) to compound (I) after oral dosing in minipigs
[12] = in man after oral dosing; cited from earlier work
[13] = HEK-293 cells expressing human D1 receptor, cAMP HTRF, read-out: D1 EC50
[14] = apomorphine 3 mg/kg s.c., pramipexole 0.3 mg/kg s.c.

SMILES: CCCN1CCC[C@@H]2Cc3c(ccc(OC(=O)C(C)(C)C)c3OC(=O)C(C)(C)C)C[C@H]21 [(Ic)]
- 5-HT2B agonist effect at single concentration ([1]; @10 μM): −5%@10 μM
- Plasma profile of compound (I) after oral dosing (in words) [2]: extremely low

SMILES: CCCN1CCC[C@@H]2Cc3c(ccc(O)c3O)C[C@H]21 [Compound (I), (4aR,10aR)-1-Propyl-1,2,3,4,4a,5,10,10a-octahydro-benzo[g]quinoline-6,7-diol]
- EC50 [3, 13]: 3.3 nM
- EC50 [4]: 1.3 nM
- EC50 [1]: 2900 nM
- Oral bioavailability (in words) [5]: low oral bioavailability

SMILES: CCCN1CCC[C@@H]2CC3=C(CCCC3=O)C[C@H]21 [Compound (Ia)]
- EC50 [3, 13]: > 1000 nM
- EC50 [4]: > 1000 nM
- 5-HT2B agonist effect at single concentration ([1]; @30 μM): 58%
- EC50 [1]: > 6000 nM
- Plasma profile of compound (I) after oral dosing (in words) [2]: early and high peak concentrations of compound (I)

SMILES: CCCN1CCC[C@@H]2Cc3c(ccc4c3OCO4)C[C@H]21 [Compound (Ib)]
- EC50 [3]: > 1000 nM
- EC50 [4]: 46 nM
- 5-HT2B receptor agonism (in words) [1]: agonist of the 5-HT2B receptor
- EC50 [1]: 3.8 nM
- Plasma profile of compound (I) after oral dosing (in words) [2]: early and high peak concentrations of compound (I)

SMILES: CCCN1CCC[C@@H]2Cc3c(ccc(O)c3O[C@@H]3O[C@H](C(=O)O)[C@@H](O)[C@H](O)[C@H]3O)C[C@H]21 [Compound (Id), (2S,3S,4S,5R,6S)-3,4,5-trihydroxy-6-(((4aR,10aR)-7-hydroxy-1-propyl-1,2,3,4,4a,5,10,10a-octahydrobenzo[g]quinolin-6-yl)oxy)tetrahydro-2H-pyran-2-carboxylic acid]
- EC50 [3, 13]: 2700 nM
- EC50 [4]: 1100 nM
- Plasma profile of compound (I) after oral dosing (in words) [2]: slower absorption rate avoiding rapid peak concentrations accompanied by a sustained exposure of compound (I) in plasma
- Onset of increased locomotor activity post-administration [6, 14]: ~2 h
- End of locomotor effect, time post administration ([6]; apomorphine 3 mg/kg s.c.): lasting until the end of recording
- Total distance travelled ([6]; versus vehicle, (Id) 10-300 μg/kg p.o., apomorphine 3 mg/kg s.c., pramipexole 0.3 mg/kg s.c.): significantly increased activity
- Conversion to compound (I) [7]: time dependent conversion
- Conversion to compound (I) [8]: time dependent conversion
- Conversion to compound (I) [9]: time dependent conversion
- Conversion to compound (I) [10]: time dependent conversion
- In vivo conversion to compound (I) [11]: observed

SMILES: CCCN[C@H]1CCc2nc(N)sc2C1 [Pramipexole, pramipexole]
- Onset of increased locomotor activity post-administration [6, 14]: about 1 hours
- Locomotor effect gone, time after its appearance ([6]; pramipexole 0.3 mg/kg s.c., at the 270-minute time point): 2.5 h

SMILES: CCCc1cc2c(s1)CN[C@@H]1CCc3cc(OC(C)=O)c(OC(C)=O)cc3[C@@H]21 [adrogolide]
- Oral bioavailability [12]: ~4%

SMILES: CN1CCc2cccc3c2[C@H]1Cc1ccc(O)c(O)c1-3 [apomorphine]
- Onset of increased locomotor activity post-administration [6, 14]: immediate
- End of locomotor effect, time post administration ([6]; apomorphine 3 mg/kg s.c.): 1.5 h
